The MIC50 is the lowest concentration that inhibits either 50% of growth or 50% of the strains tested, depending on the study. For orientation: MIC90 means an inhibitory concentration at the 90% level, which refers to growth in some studies and to a panel of isolates in others. What is called IC50 is the concentration at which inhibition is half-maximal.

Like-named read-outs stand apart in the source and are kept apart here.

The values that follow come from article PMC9220351, “Evaluation of a Conformationally Constrained Indole Carboxamide as a Potential Efflux Pump Inhibitor in Pseudomonas aeruginosa” (Antibiotics, 2022).

For data set [1], the system named is 300 P. aeruginosa clinical isolates from 63 countries. In words: Susceptibility study, IHMA panel. It counts as cell-based, Pseudomonas aeruginosa. The following applies: for Cumulative Susceptibility % Strains at 1: concentration 1 µg/ml; for Cumulative Susceptibility % Strains at 2: concentration 2 µg/ml; for Cumulative Susceptibility % Strains at 4: concentration 4 µg/ml; for Cumulative Susceptibility % Strains at 8: concentration 8 µg/ml; for Cumulative Susceptibility % Strains at 16: concentration 16 µg/ml; for Cumulative Susceptibility % Strains at 32: concentration 32 µg/ml; for Cumulative Susceptibility % Strains at >32: concentration >32 µg/ml. An excerpt:
(§1) First, 209 clinical isolates of P. aeruginosa were collected, unbiased of susceptibility, from three US hospitals by Micromyx (now part of Microbiologics; Kalamazoo, MI, USA). IHMA (Monthey, Switzerland) collected 300 P. aeruginosa clinical isolates, also unbiased of susceptibility, from the following 63 countries: Argentina, Australia, Belgium, Brazil, Canada, Chile, Colombia, Costa Rica, Croatia, Czech Republic, Denmark, Dominican Republic, Ecuador, France, Georgia, Germany, Greece, Guatemala, Hong Kong, Hungary, India, Ireland, Israel, Italy, Japan, Jordan, Kazakhstan, Kenya, South Korea, Kuwait, Latvia, Lebanon, Lithuania, Malaysia, Mexico, Morocco, Netherlands, New Zealand, Nigeria, Panama, Philippines, Poland, Portugal, Puerto Rico, Qatar, Romania, Russia, Saudi Arabia, Serbia, Slovenia, South Africa, Spain, Sweden, Switzerland, Taiwan, Thailand, Tunisia, Turkey, Ukraine, United Kingdom, United States, Venezuela, and Vietnam. Isolates came from the following types of infection: genitourinary (urine), gastrointestinal (stomach), gastrointestinal (pancreas), […] (wound), respiratory (sputum), […] (blood), respiratory (bronchoalveolar lavage), […] (burn), respiratory (endotracheal aspirate), bodily fluids (abscess/pus), […] (impetiginous lesions), gastrointestinal (abscess) and respiratory (bronchial brushing). CF patients were not excluded.
(§2) MIC assays were performed as described previously.

The test system of data set [2] is P. aeruginosa mutants EPIR1S, EPIR9S, EPIR20L, EPIR43. The data set is described as follows: MIC of antimicrobials in TXA09155-resistant mutants. It counts as cell-based, Pseudomonas aeruginosa. The following applies: Pseudomonas aeruginosa. Here is the method: (§3) All resistant colonies were verified by determining the MIC to TXA09155. […] This two-component system regulates the expression of more than 100 genes in P. aeruginosa, including genes that code for efflux components (mexX), and plays a role in the resistance to cationic antimicrobial peptides and aminoglycoside antibiotics.
as §2

In data set [3] the test system is 209 P. aeruginosa clinical isolates from three US hospitals. The data set is described as follows: Susceptibility study, Micromyx panel. It counts as cell-based, Pseudomonas aeruginosa. The following applies: for Cumulative Susceptibility % Strains at 1: concentration 1 µg/ml; for Cumulative Susceptibility % Strains at 2: concentration 2 µg/ml; for Cumulative Susceptibility % Strains at 4: concentration 4 µg/ml; for Cumulative Susceptibility % Strains at 8: concentration 8 µg/ml; for Cumulative Susceptibility % Strains at 16: concentration 16 µg/ml; for Cumulative Susceptibility % Strains at 32: concentration 32 µg/ml; for Cumulative Susceptibility % Strains at >32: concentration >32 µg/ml.
Excerpt: as §1, §2

The subject of data set [4] is P. aeruginosa ATCC 27853. In words: MIC / antibiotic potentiation assay, wild-type strain. The following applies: for MIC: Pseudomonas aeruginosa.
The subject of data set [5] is P. aeruginosa ATCC 27853. It counts as cell-based, Pseudomonas aeruginosa. Here is the method:
as §3
The frequency of resistance studies was carried out as described previously.

In data set [6] the target is CYP1A2 (Homo sapiens, UniProt P05177). The data set is described as follows: CYP inhibition. It counts as in vitro ADME. The following applies: read-out: CYP Inhibition IC50, CYP 1A2.
CYP1A2, sequence (P05177 whole entry): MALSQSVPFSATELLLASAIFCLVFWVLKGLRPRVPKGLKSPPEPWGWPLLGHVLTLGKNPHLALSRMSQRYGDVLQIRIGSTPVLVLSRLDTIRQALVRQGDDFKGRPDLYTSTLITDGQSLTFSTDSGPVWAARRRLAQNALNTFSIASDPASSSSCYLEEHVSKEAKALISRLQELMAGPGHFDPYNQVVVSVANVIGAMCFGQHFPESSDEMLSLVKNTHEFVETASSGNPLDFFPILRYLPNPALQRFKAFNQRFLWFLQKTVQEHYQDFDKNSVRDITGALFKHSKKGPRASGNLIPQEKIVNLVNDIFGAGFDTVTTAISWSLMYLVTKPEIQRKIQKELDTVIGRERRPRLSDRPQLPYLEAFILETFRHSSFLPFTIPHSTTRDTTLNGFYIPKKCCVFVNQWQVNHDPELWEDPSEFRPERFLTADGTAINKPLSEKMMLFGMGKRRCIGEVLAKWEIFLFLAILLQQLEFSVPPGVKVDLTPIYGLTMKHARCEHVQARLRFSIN
Data set [7] has as its system human RBCs. In words: Hemolytic activity. The following applies: 12.5 to 100 µM. It counts as cell-based.
The nature of data set [8]: CellTiterGlo cytotoxicity assay. It counts as cell-based. The following applies: human, 293T cells.
The subject of data set [9] is P. aeruginosa ATCC 27853 efflux of EtBr. In words: Ethidium bromide (EtBr) efflux inhibition assay. It counts as cell-based, Pseudomonas aeruginosa. The following applies: fluorescence, after glucose activation. Here is the method:
The ability of TXA09155 to inhibit efflux in P. aeruginosa was studied using two quantitative assays to establish efflux inhibition as the MOA. In the first assay, the efflux of ethidium bromide (EtBr) by P. aeruginosa cells is studied in the presence of different concentrations of TXA09155. Wild-type P. aeruginosa ATCC 27853 cells were incubated with EtBr to allow for the intracellular accumulation and were treated with CCCP to inhibit active efflux. […] Following activation by the addition of glucose, the efflux of EtBr can be followed in real time as a decrease in fluorescence based on the concentration of TXA09155.
Efflux of EtBr from P. aeruginosa in the presence of TXA09155 was carried out as described previously.

A short description of data set [10]: Metabolic stability in rat liver microsomes. It counts as in vitro ADME. Here is the method:
The metabolic stability of TXA09155 was determined in human, mouse, and rat liver microsomes by Eurofins (St. Charles, MO, USA) using the substrate depletion method (in vitro half-life (t1/2) method). Quantification was performed by LC/MS/MS. In this assay, depletion of the parent compound is measured over time to determine the compound’s in vitro t1/2 and hepatic extraction ratios (ER). This is used to predict metabolic clearance. […] This assay utilizes electrophysiology measurements on the electric current passing through the hERG channel heterologously expressed in a stable CHO cell line. Channels are open by a hERG-specific voltage protocol, and the compound effects are directly characterized by their block of the hERG current. The assay is performed on an automated platform, Q-Patch.
Background: Liver microsomes are vesicles of endoplasmic reticulum, rich in cytochrome P450 enzymes.

Data set [11] deals with P. aeruginosa ATCC 27853. In words: Intracellular ATP levels. It counts as cell-based, Pseudomonas aeruginosa. The following applies: 1/4th and 1/8th MIC, 3 h. As to the method: P. aeruginosa intracellular ATP levels were determined as described previously using an ATP determination kit (catalog number A22066; Thermo Fisher Scientific, Waltham, MA, USA). […] After treatment, the cells were lysed in chloroform, which was subsequently removed by boiling at 80 °C. The persistent ATP from cell lysate was measured in a 96-well black flat-bottom plate and plotted as relative luminescence units. […] Error bars represent the standard deviation of triplicates.

Data set [12] addresses CYP2D6 (Homo sapiens, UniProt P10635). In words: CYP inhibition. It counts as in vitro ADME. The following applies: read-out: CYP Inhibition IC50, CYP 2D6.
Data set [13] is described as follows: CellTiterGlo cytotoxicity assay. It counts as cell-based. The following applies: human, A549 cells.
In data set [14] the test system is P. aeruginosa ATCC 27853 inner membrane. In words: Flow cytometry propidium iodide (PI) assay for inner membrane permeabilization. The following applies: no inner membrane permeabilization below this concentration. It counts as cell-based, Pseudomonas aeruginosa. (In flow cytometry, cells or beads pass a laser one at a time.)
Protocol: Membrane disruption was assayed with two approaches: (1) a flow cytometry-based propidium iodide (PI) assay to monitor inner membrane permeabilization, and (2) a nitrocefin (NCF) assay to monitor outer membrane permeabilization. NCF is a chromogenic cephalosporin that changes from yellow to red when the amide bond in the β-lactam ring is hydrolyzed by a β-lactamase. The rate of hydrolysis in intact cells is slow, as it is limited by the rate of diffusion of periplasmic β-lactamase across the outer membrane. However, in the presence of an agent that permeabilizes the outer membrane, the rate of hydrolysis will increase [33]. […] Polymyxin B was used as a positive control (Figure 2B). […] Cells whose membranes remain intact exclude PI and remain non-fluorescent, while cells with compromised membrane integrity allow PI to enter and bind to DNA, resulting in fluorescence.
A flow cytometry assay used for assessing potential inner membranes permeabilization of P. aeruginosa bacterial cells to PI was conducted using the LIVE/DEAD BacLight Kit from Invitrogen (Waltham, MA, USA). […] Intracellular PI fluorescence was detected by flow cytometry using a CytoFlex (Beckman Coulter Inc., Brea, CA, USA). […] For each sample, the fluorescence of 10,000 individual bacterial cells was measured, and the percent of cells that stained positive for PI fluorescence was calculated.
Setting [15] is: n: 300, in combination TXA09155 fixed […].
Where [16] appears, read: n: 209, in combination TXA09155 fixed […].
[17] abbreviates: TXA09155 fixed […], 300 isolates.
The mark [18] stands for this setting: TXA09155 fixed […], 209 isolates.

CYP2D6, sequence (P10635 whole entry): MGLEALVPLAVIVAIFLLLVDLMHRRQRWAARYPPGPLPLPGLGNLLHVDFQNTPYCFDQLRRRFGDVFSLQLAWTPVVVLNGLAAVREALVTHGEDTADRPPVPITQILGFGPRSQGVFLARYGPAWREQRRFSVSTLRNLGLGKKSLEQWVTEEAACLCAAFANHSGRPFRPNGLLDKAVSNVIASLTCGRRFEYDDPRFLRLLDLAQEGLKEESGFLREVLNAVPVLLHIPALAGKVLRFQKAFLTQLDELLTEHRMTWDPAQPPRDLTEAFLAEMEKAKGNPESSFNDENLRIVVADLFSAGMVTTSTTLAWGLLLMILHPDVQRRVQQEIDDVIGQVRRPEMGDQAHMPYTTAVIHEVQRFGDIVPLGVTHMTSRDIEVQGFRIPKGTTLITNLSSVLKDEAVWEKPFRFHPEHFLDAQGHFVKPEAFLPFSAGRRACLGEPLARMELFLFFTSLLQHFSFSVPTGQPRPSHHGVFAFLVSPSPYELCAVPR

For the compound `C[C@H]1COc2c(N3CCN(C)CC3)c(F)cc3c(=O)c(C(=O)O)cn1c23` [Levofloxacin], the “% R (percent resistant per breakpoints)” value in [1] (LVX ≤1S 2I ≥4R, n: 300) came to 22%; in data set [3] (LVX ≤1S 2I ≥4R, n: 209) it was 32%. Moreover, the “Cumulative Susceptibility % Strains at 0.5” value in data set [1] (concentration 0.5 µg/ml, n: 300) is recorded as 60%; in [3] (concentration 0.5 µg/ml, n: 209), 47%. Further, the results for the “Cumulative Susceptibility % Strains at 1” value in data set [1] (n: 300) and in data set [3] (n: 209) were 69% and 58%, respectively. Further, the “Cumulative Susceptibility % Strains at 2” value in data set [1] (n: 300) is 78%; in data set [3] (n: 209) it was 68%. Besides, the “Cumulative Susceptibility % Strains at 4” value was 83% in data set [1] (n: 300) and 78% in [3] (n: 209). Also, the “Cumulative Susceptibility % Strains at 8” value in [1] (n: 300) is listed as 84%; in data set [3] (n: 209), 86%. In addition, the “Cumulative Susceptibility % Strains at 16” value is listed as 89% in [1] (n: 300) and 93% in data set [3] (n: 209). The “Cumulative Susceptibility % Strains at 32” value is on record as 95% in data set [1] (n: 300) and 98% in data set [3] (n: 209). Besides, the “Cumulative Susceptibility % Strains at >32” value in data set [1] (n: 300) and in [3] (n: 209) was 100% throughout. The “Cumulative Susceptibility % Strains at 0.06” value in [1] (concentration column 0.06 µg/ml, n: 300) stood at 1%. The MIC50 worked out at 0.5 µg/mL in data set [1] (setting [15]) and 1 µg/mL in data set [3] (setting [16]). For the same compound, the MIC90 in [1] (setting [15]) came out at 32 µg/mL; in data set [3] (setting [16]), 16 µg/mL. Besides, the MIC in [2] (strain EPIR1S (phoQ-L175R)) was found to be 1 µg/mL; in data set [2] (strain EPIR9S (phoQ-L175R)) it was 1 µg/mL; in data set [2] (strain EPIR20L (phoQ-H248D)), 1 µg/mL; in data set [4] (ATCC27853, read-out: Antibiotic MIC in Presence of TXA09155 at a Concentration of 0), 1 µg/mL; in [4] (ATCC27853, read-out: MICs, Lack of EPI), 1 µg/mL. Besides, the “Cumulative Susceptibility % Strains at 0.12” value in data set [3] (concentration column 0.12 µg/ml, n: 209) amounted to 2%. Also, in [4] (TXA09155 3.13 μg/mL), the “Antibiotic MIC in Presence of TXA09155 at a Concentration of 3.13” value was found to be 1 µg/mL. Moreover, the “Antibiotic MIC in Presence of TXA09155 at a Concentration of 25” value in data set [4] (TXA09155 25 μg/mL) was found to be 0.063 µg/mL.

As for `NCCC[C@H](N)CNC(=O)c1cc2ccc(-c3ccc(F)cc3)cc2[nH]1` [TXA01182], the “Frequency of resistance, Levofloxacin (4 μg/mL) + TXA01182 ([…])” value in [5] (levofloxacin 4 μg/mL + EPI […]) is on record as <3.33 × 10^−9.

On to `Cl.NC[C@@H]1CN[C@H](CNC(=O)c2cc3ccc(-c4ccc(F)cc4)cc3[nH]2)C1` [TXA09155, N-(((2S,4R)-4-(aminomethyl)pyrrolidine-2-yl)methyl)-6-(4-fluorophenyl)-1H-indole-2-carboxamide hydrochloride salt], for which the IC50 in data set [6] was more than 100 µM; in [8], more than 40 µM; in data set [12] it was 67.2 µM; in [13], more than 40 µM. In data set [7], the hemolytic activity entry is recorded as “did not display hemolytic activity”. Moreover, the “levofloxacin MIC50 in presence of TXA09155” value in [1] (setting [17]) came to 0.06 µg/mL; in data set [3] (setting [18]), 0.12 µg/mL. Further, the “levofloxacin MIC90 in presence of TXA09155” value was determined as 8 µg/mL in [1] (setting [17]) and 2 µg/mL in [3] (setting [18]). The “Cumulative Susceptibility % Strains at 1” value in data set [1] (n: 300) and in [3] (n: 209) was 2% each time. Further, the “Cumulative Susceptibility % Strains at 2” value worked out at 6% in data set [1] (n: 300) and 2% in [3] (n: 209). Besides, the “Cumulative Susceptibility % Strains at 4” value came to 7% in data set [1] (n: 300) and 3% in data set [3] (n: 209). For the same compound, the “Cumulative Susceptibility % Strains at 8” value in data set [1] (n: 300) is given as 7%; in data set [3] (n: 209), 6%. The “Cumulative Susceptibility % Strains at 16” value in [1] (n: 300) and in data set [3] (n: 209) was 9% in each case. For the same compound, the “Cumulative Susceptibility % Strains at 32” value is on record as 13% in data set [1] (n: 300) and 36% in data set [3] (n: 209). Besides, the “Cumulative Susceptibility % Strains at >32” value in data set [1] (n: 300) and in [3] (n: 209) was 100% each time. Further, the MIC in [2] (strain EPIR1S (phoQ-L175R)) was 200 µg/mL; in [2] (strain EPIR9S (phoQ-L175R)), 100 µg/mL; in data set [2] (strain EPIR20L (phoQ-H248D)) it was 200 µg/mL; in data set [4] (ATCC27853) it was 50 µg/mL. In [9], the “inhibition of EtBr efflux” value was “concentration-dependent inhibition”. In addition, the “fold reduction of the FoR to levofloxacin” value in data set [5] was “more than 149 fold”. Moreover, the “FoR, resistance to TXA09155 alone (1×-MIC)” value in [5] (50 μg/mL) was 1.9 × 10^−3. For the same compound, in data set [5] (200 μg/mL), the “FoR, resistance to TXA09155 alone (4×-MIC)” value is given as 1.40 × 10^−6. The “HLM and RLM Metabolic Stability (RLM)” value in [10] is listed as more than 60%. Further, the ATP depletion result in data set [11] is given as “did not result in ATP depletion”. Further, the “concentrations without inner membrane disruption (basal PI fluorescence)” value in data set [14] is less than 50 µg/mL. In addition, the “lowest active concentration for TXA09155” value in [4] (antibiotic potentiation) is recorded as 6.25 µg/mL.
